Laboratory results reported in patent publication US6998383B2, “Inhibitors of receptor activator of NF-κB and uses thereof” (Research Development Corporation, priority 2001, dated 2006).

Assays:
[1] = system: RAW264.7 cells; assay: RANKL-mediated osteoclast differentiation in RAW264.7 cells (TRAP staining); assay type: cell-based, mouse
Experimental: RAW264.7 cells were plated in 12-well plates and stimulated with RANKL (30 ng/ml) for 4 days. Cells were stained for TRAP essentially as described below. Photographs were taken using a 10× objective lens.
RAW cells were plated as described in FIG. 2A and treated with RANKL in the presence of 1, 30, or 100 μM of peptides as indicated. On day 4 cells were stained and evaluated as in FIG. 2A.
RAW264.7 cells were plated in 48-well plates in triplicate and treated with RANKL in the presence of increasing amounts of the indicated peptides. After 4-5 days, the cells were stained for TRAP and the total numbers of osteoclasts were counted as described below.
Primary bone marrow monocytes (BM) or RAW264.7 cells were cultured in 48-well dishes at a density of 1×10^5 cells/well or 2×10^3 cells/well, and then treated with the indicated factors at the beginning of the culture and during a medium change on day 3. Osteoclast formation was assessed by counting the total number of multi-nucleated (>3 nuclei), TRAP-positive cells present per well between day 7 and 10 (BM) or on day 5 (RAW264.7) (30).
The mouse macrophage cell line RAW264.7 express the receptor activator of NF-κB on their cell surface and when stimulated with the receptor activator of NF-κB ligand differentiate into multi-nucleated, tartrate resistant acid phosphatase (TRAP) positive osteoclasts after 4-5 days (FIG. 2A). To determine whether L-T6DP-1 could inhibit RANKL-mediated osteoclast differentiation, RAW264.7 cells were co-cultured with increasing concentrations of either L-T6DP-1. or T6DP-1 and 30 ng/ml RANKL for 4 days.

[2] = system: IκB; assay: IκB degradation in RANKL-treated RAW264.7 cells (anti-IκB immunoblot); assay type: cell-based, mouse; conditions: cytoplasmic extracts of RAW264.7 cells from FIG. 4A (FIG. 4B)
Experimental: RAW264.7 cells were plated in 6-well plates and treated with the indicated peptides for 5 h, then treated with RANKL (10 nM) for 15 mm. Nuclear and cytoplasmic extracts were prepared and a gel mobility shift assays was performed with 8 μg of nuclear extracts as described below.
Cytoplasmic extracts (30 μg) from FIG. 4A were immunoblotted with anti-IκB as described below.
293 cells were plated at 0.6×10^6 cells/well on 6-well plates and transfected the next day as described (8). Total amount of plasmid DNA was kept constant by adding empty pCMVFLAG1 vector. Cells and the conditioned supernatants were harvested 24-36 h after transfection. Lysates were prepared as described (8). For western blot analysis, whole-cell lysates (15-30 μg) or proteins from GST-affinity precipitation were separated by 8.5% SDS-PAGE, electroblotted onto nitrocellulose membranes, and incubated with the indicated antibodies. The membranes were then developed using the enhanced chemiluminescence (ECL) system (Amersham, Chicago, Ill.).

[3] = target: T1, TRAF6 binding to the RANK cytoplasmic domain (Mus musculus, UniProt P70196); assay: Competitive GST-pull down assay, TRAF6 binding to RANK cytoplasmic domain; conditions: 100 μM peptide, FLAG-TRAF6 293 cell extract, GST-RANK cytoplasmic domain (FIG. 4C)
T1 construct: expressed in transfected cells; host or cells: human 293 cells (TRAF lysate); The GST-RANK fusion was purified as previously described
T1 sequence (P70196 1-530): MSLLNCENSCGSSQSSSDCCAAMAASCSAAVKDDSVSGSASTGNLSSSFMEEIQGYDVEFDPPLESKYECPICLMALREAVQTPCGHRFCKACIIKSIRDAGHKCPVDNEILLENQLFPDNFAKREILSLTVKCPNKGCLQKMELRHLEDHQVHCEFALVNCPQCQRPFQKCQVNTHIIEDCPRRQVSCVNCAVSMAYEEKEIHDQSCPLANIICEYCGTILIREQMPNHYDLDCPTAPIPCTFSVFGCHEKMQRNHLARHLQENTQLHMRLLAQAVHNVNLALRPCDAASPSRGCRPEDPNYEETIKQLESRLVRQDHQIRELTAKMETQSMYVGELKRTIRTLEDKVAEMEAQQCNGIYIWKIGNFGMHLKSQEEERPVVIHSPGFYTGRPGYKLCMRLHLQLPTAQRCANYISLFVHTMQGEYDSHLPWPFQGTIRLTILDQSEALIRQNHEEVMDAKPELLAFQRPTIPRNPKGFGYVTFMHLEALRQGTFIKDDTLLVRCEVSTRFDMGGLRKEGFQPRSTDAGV
Experimental: (§1) Cellular extracts from human 293 cells transfected with either FLAG-TRAF2, -TRAF5, or -TRAF6 were mixed with GST or GST-RANKed in the absence or presence of 100 μM of the indicated peptides. A GST-pull down assay was performed as described below. The bound TRAFs were visualized by immunoblotting with anti-FLAG antibodies.
(§2) Equivalent amounts of GST or GST-RANK cytoplasmic domain (GST-RANKed) fusion protein attached to 20 μl of glutathione agarose beads were mixed with lysates (50 μg) from 293 cells programmed to express the epitope-tagged TRAF protein and the indicated peptides in binding buffer (20 mM TRIS, pH 8, 150 mM NaCl, 1 mM DTT, 2 mM EDTA, and 0.1% NP-40) and allowed to rotate for 1 h at 4° C. The beads were collected by centrifugation, washed three times in binding buffer, and then washed once in low-salt buffer (20 mM TRIS, pH 8, 50 mM NaCl, and 1 mM DTT). Bound proteins were eluted with addition of SDS-sample buffer and boiled. The eluted proteins were subjected to 7.5% SDS-PAGE and western blot analysis was performed with anti-FLAG antibodies.
(§3) The cytoplasmic domain of RANK interacts with many TRAF molecules, including TRAF1, 2, 3, 5, and 6 (7-9, 11, 12). While TRAF1, 2, 3, and 5 interact with the c-terminal tail of receptor activator of NF-κB, TRAF6 interacts with a membrane proximal region of the cytoplasmic domain of the receptor activator of NF-κB. […]

[4] = target: T2, TRAF5 binding to the cytoplasmic domain of RANK (Mus musculus, UniProt P70191); assay: Competitive GST-pull down assay, TRAF5 binding to RANK cytoplasmic domain; conditions: 100 μM peptide, FLAG-TRAF5 293 cell extract (FIG. 4C)
T2 construct: expressed in transfected cells; host or cells: human 293 cells (TRAF lysate); The GST-RANK fusion was purified as previously described
Experimental: as §1, §2, §3

T2 sequence (P70191 whole entry, the tested form may be a part): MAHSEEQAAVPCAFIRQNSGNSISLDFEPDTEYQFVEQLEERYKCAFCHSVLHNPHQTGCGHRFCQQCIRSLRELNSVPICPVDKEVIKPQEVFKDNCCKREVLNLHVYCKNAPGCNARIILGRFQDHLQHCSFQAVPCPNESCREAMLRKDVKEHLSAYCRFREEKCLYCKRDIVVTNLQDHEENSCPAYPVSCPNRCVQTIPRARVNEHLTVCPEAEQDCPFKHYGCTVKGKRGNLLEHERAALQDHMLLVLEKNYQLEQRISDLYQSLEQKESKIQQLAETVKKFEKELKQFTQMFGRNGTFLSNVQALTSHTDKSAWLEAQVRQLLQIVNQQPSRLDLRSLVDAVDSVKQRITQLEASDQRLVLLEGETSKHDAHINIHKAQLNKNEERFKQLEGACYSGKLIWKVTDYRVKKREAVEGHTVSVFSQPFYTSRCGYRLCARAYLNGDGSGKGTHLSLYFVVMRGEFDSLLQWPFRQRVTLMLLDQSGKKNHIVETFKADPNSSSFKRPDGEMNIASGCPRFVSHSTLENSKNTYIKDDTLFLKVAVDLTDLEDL

Question: With “L-T6DP-1: Kaposi fibroblast growth factor signal sequence hydrophobic domain attached to murine RANK peptide containing the known TRAF6 binding domain (AAVALLPAVLLALLAPRKIPTEDEYTDRPSQPST; PEPTIDE Peptide L-T6Bp-1)” as the substance, how does the RANKL-mediated osteoclast differentiation ([1]; 30 ng/ml RANKL, 4 days, 1, 30 or 100 μM peptide (FIG. 2B)) read?
Answer: Its RANKL-mediated osteoclast differentiation is “dose-dependent inhibition”.

Question: What about the multi-nucleated osteoclasts ([1]; RANKL, 100 μM peptide, cells still TRAP positive (FIG. 2B)) of the same substance?
Answer: The multi-nucleated osteoclasts was “multi-nucleated osteoclast were not observed”.

Question: What about the “number of TRAP positive osteoclasts” value ([1]; RANKL, increasing amounts of peptide, 4-5 days (FIG. 2C)) of the same substance?
Answer: The value was “dose-dependent decrease”.

Question: What about the IκB degradation [2] of the same substance?
Answer: The IκB degradation was “inhibition”.

Question: And the “TRAF6 interaction with the cytoplasmic domain of RANK” value [3]?
Answer: The value was “inhibited”.

Question: And the “TRAF5 binding to the cytoplasmic domain of RANK” value [4]?
Answer: Its value is “neither L-T6DP-1 nor L-T6DP-2 inhibited”.
